Data from patent US11535643B2, “Macrolides with modified desosamine sugars and uses thereof” (President and Fellows of Harvard College, priority 2015, dated 2022).
≈ marks a conversion by molar mass, not a printed value. Where two headings read alike, the source gives them in different places.

How the values were obtained:
Format in all cases: cell-based
S. aureus = assay: Broth dilution MIC determination (CLSI) against S. aureus strains; conditions: Staphylococcus aureus
In short: (§1)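 CLSI broth dilution MIC; panel of unique strains incl. multidrug-resistant ones, focus on macrolide-resistance mechanisms; azithromycin, solithromycin as controls.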

S. pneumoniae = assay: Broth dilution MIC determination (CLSI) against S. pneumoniae strains; conditions: Streptococcus pneumoniae
In short: as §1

S. pyogenes = assay: Broth dilution MIC determination (CLSI) against S. pyogenes strains; conditions: Streptococcus pyogenes
In short: as §1

E. faecalis = assay: Broth dilution MIC determination (CLSI) against E. faecalis strains; conditions: Enterococcus faecalis
In short: as §1

E. coli = assay: Broth dilution MIC determination (CLSI) against E. coli strains; conditions: Escherichia coli
In short: as §1

A. baumannii = assay: Broth dilution MIC determination (CLSI) against A. baumannii strains; conditions: Acinetobacter baumannii
In short: as §1

K. pneumoniae = assay: Broth dilution MIC determination (CLSI) against K. pneumoniae strains; conditions: Klebsiella pneumoniae
In short: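 CLSI broth-dilution MICs across a panel including multidrug- and macrolide-resistant strains, with azithromycin and solithromycin as control compounds.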

P. aeruginosa = assay: Broth dilution MIC determination (CLSI) against P. aeruginosa strains
In short: as §1

H. influenzae = assay: Broth dilution MIC determination (CLSI) against H. influenzae strains; conditions: Haemophilus influenzae
In short: as §1

[1] = ATCC29213, ATCC29213, read-out: MIC S. aureus ATCC29213
[2] = MRSA / USA100, MRSA: USA100, read-out: MIC S. aureus MRSA: USA100
[3] = MRSA / USA300, MRSA: USA300, read-out: MIC S. aureus MRSA: USA300
[4] = USA600, USA600, GISA, read-out: MIC S. aureus USA600, GISA
[5] = read-out: MIC S. aureus erm A genotype
[6] = ATCC49619, ATCC49619, read-out: MIC S. pneumoniae ATCC49619
[7] = erm B + mef A genotype, read-out: MIC S. pneumoniae erm B + mef A genotype
[8] = erm B + tet(M, O) genotype, read-out: MIC S. pneumoniae erm B + tet(M, O) genotype
[9] = ATCC19615, ATCC19615, read-out: MIC S. pyogenes ATCC19615
[10] = macrolide-resistant, read-out: MIC S. pyogenes macrolide-resistant
[11] = ATCC29212, ATCC29212, read-out: MIC E. faecalis ATCC29212
[12] = Vancomycin-resistant, read-out: MIC E. faecalis Vancomycin-resistant
[13] = ATCC25922, ATCC25922, read-out: MIC E. coli ATCC25922
[14] = read-out: MIC E. coli CTX-M-14, CTX-M-14
[15] = read-out: MIC E. coli NDM-1, NDM-1
[16] = read-out: MIC E. coli TEM-1, TEM-1
[17] = ATCC19606, ATCC19606, read-out: MIC A. baumannii ATCC19606
[18] = IMP-4, read-out: MIC A. baumannii IMP-4
[19] = chromosomal class C, read-out: MIC A. baumannii chromosomal class C
[20] = imipenem-resistant, read-out: MIC A. baumannii imipenem-resistant
[21] = ATCC10031, ATCC10031, read-out: MIC K. pneumoniae ATCC10031
[22] = KPC-2, read-out: MIC K. pneumoniae KPC-2
[23] = SHV-12, read-out: MIC K. pneumoniae SHV-12
[24] = TEM-10, read-out: MIC K. pneumoniae TEM-10
[25] = Pseudomonas aeruginosa, ATCC27853; read-out: MIC P. aeruginosa ATCC27853
[26] = Pseudomonas aeruginosa; read-out: MIC P. aeruginosa HPA101-1477
[27] = ATCC49247, ATCC49247, read-out: MIC H. influenzae ATCC49247
[28] = erythro > 4, azithro 1, read-out: MIC H. influenzae erythro > 4, azithro 1
[29] = read-out: MIC S. pneumoniae mef A genotype, mef A genotype
[30] = read-out: MIC S. pneumoniae mef A genotype, mef A genotype, first of two such columns (c3)

SMILES	MIC (S. aureus; [1]) [µg/mL]	MIC (S. aureus; [2]) [µg/mL]	MIC (S. aureus; [3]) [µg/mL]	MIC (S. aureus; [4]) [µg/mL]	MIC (S. aureus; [5]) [µg/mL]	MIC (S. pneumoniae; [6]) [µg/mL]	MIC (S. pneumoniae; [7]) [µg/mL]	MIC (S. pneumoniae; [8]) [µg/mL]	MIC (S. pyogenes; [9]) [µg/mL]	MIC (S. pyogenes; [10]) [µg/mL]	MIC (E. faecalis; [11]) [µg/mL]	MIC (E. faecalis; [12]) [µg/mL]	MIC (E. coli; [13]) [µg/mL]	MIC (E. coli; [15]) [µg/mL]	MIC (A. baumannii; [17]) [µg/mL]	MIC (A. baumannii; [20]) [µg/mL]	MIC (K. pneumoniae; [21]) [µg/mL]	MIC (K. pneumoniae; [22]) [µg/mL]	MIC (P. aeruginosa; [25]) [µg/mL]	MIC (H. influenzae; [27]) [µg/mL]	also measured
CC[C@H]1OC(=O)[C@H](C)C(=O)[C@H](C)[C@@H](O[C@@H]2OC(Cn3cc(-c4cccc(N)n4)nn3)CC(N(C)C)C2O)[C@](C)(OC)C[C@@H](C)CN[C@H](C)[C@H]2N(CCCCn3cc(-c4cccc(N)c4)nn3)C(=O)O[C@]12C (some centres unmarked) [FSM-22124]	4 (≈ 4.05 µM)	> 32	> 32	> 32	> 32	≤ 0.0312	0.5	≤ 0.0312	≤ 0.0312	2 (≈ 2.03 µM)	0.25 (≈ 0.253 µM)	> 32	16 (≈ 16.2 µM)	> 32	16 (≈ 16.2 µM)	16 (≈ 16.2 µM)	4 (≈ 4.05 µM)	32 (≈ 32.4 µM)	> 32	2 (≈ 2.03 µM)	MIC (E. coli; [14]): > 32 µg/mL; MIC (E. coli; [16]): 16 µg/mL (≈ 16.2 µM); MIC (A. baumannii; [18]): > 32 µg/mL; MIC (A. baumannii; [19]): 16 µg/mL (≈ 16.2 µM); MIC (K. pneumoniae; [23]): > 32 µg/mL; MIC (K. pneumoniae; [24]): 8 µg/mL (≈ 8.1 µM); MIC (P. aeruginosa; [26]): > 32 µg/mL; MIC (H. influenzae; [28]): 1 µg/mL (≈ 1.01 µM)
CC[C@H]1OC(=O)[C@H](C)C(=O)[C@H](C)[C@@H](O[C@@H]2OC(CN(C)C)CC(N(C)C)C2O)[C@](C)(OC)C[C@@H](C)CN(C)[C@H](C)[C@H]2N(CCCCn3cc(-c4cccc(N)c4)nn3)C(=O)O[C@]12C (some centres unmarked) [FSM-22003]	8 (≈ 9.04 µM)	> 32	> 32	> 32	> 32	≤ 0.0312	32	≤ 0.0312	≤ 0.0312	2 (≈ 2.26 µM)	4 (≈ 4.52 µM)	> 32	> 32	> 32	> 32	> 32	8 (≈ 9.04 µM)	> 32	> 32	8 (≈ 9.04 µM)	MIC (S. pneumoniae; [29]): 0.5 µg/mL (≈ 0.565 µM); MIC (S. pneumoniae; [30]): 0.0625 µg/mL (≈ 0.0706 µM); MIC (E. coli; [14]): > 32 µg/mL; MIC (E. coli; [16]): 32 µg/mL (≈ 36.2 µM); MIC (A. baumannii; [18]): > 32 µg/mL; MIC (A. baumannii; [19]): > 32 µg/mL; MIC (K. pneumoniae; [23]): > 32 µg/mL; MIC (K. pneumoniae; [24]): > 32 µg/mL; MIC (P. aeruginosa; [26]): > 32 µg/mL; MIC (H. influenzae; [28]): 4 µg/mL (≈ 4.52 µM)
CC[C@H]1OC(=O)[C@H](C)C(=O)[C@H](C)[C@@H](O[C@@H]2OC(CN)CC(N(C)C)C2O)[C@](C)(OC)C[C@@H](C)CN[C@H](C)[C@H]2N(CCCCn3cc(-c4cccc(N)c4)nn3)C(=O)O[C@]12C (some centres unmarked) [FSM-21700]	8 (≈ 9.49 µM)	> 32	> 32	> 32	32 (≈ 38 µM)	≤ 0.0312	16	0.0625	0.0625 (≈ 0.0741 µM)	2 (≈ 2.37 µM)	8 (≈ 9.49 µM)	> 32	32 (≈ 38 µM)	16 (≈ 19 µM)	> 32	> 32	4 (≈ 4.74 µM)	> 32	> 32	32 (≈ 38 µM)	MIC (S. pneumoniae; [29]): 2 µg/mL (≈ 2.37 µM); MIC (S. pneumoniae; [30]): 0.5 µg/mL (≈ 0.593 µM); MIC (E. coli; [14]): > 32 µg/mL; MIC (E. coli; [16]): 8 µg/mL (≈ 9.49 µM); MIC (A. baumannii; [18]): > 32 µg/mL; MIC (A. baumannii; [19]): > 32 µg/mL; MIC (K. pneumoniae; [23]): > 32 µg/mL; MIC (K. pneumoniae; [24]): 32 µg/mL (≈ 38 µM); MIC (P. aeruginosa; [26]): > 32 µg/mL; MIC (H. influenzae; [28]): 16 µg/mL (≈ 19 µM)
CC[C@H]1OC(=O)[C@H](C)C(=O)[C@H](C)[C@@H](O[C@@H]2OC(CNC=N)CC(N(C)C)C2O)[C@](C)(OC)C[C@@H](C)CN[C@H](C)[C@H]2N(CCCCn3cc(-c4cccc(N)c4)nn3)C(=O)O[C@]12C (some centres unmarked) [FSM-21861]					> 32	0.5 (≈ 0.575 µM)							> 32	> 32							MIC (S. aureus; ATCC29213, read-out: MIC S. aureus ATCC29213): > 32 µg/mL; MIC (S. aureus; MRSA / USA100, read-out: MIC S. aureus MRSA: USA100): > 32 µg/mL; MIC (S. aureus; MRSA / USA300, read-out: MIC S. aureus MRSA: USA300): > 32 µg/mL; MIC (S. aureus; USA600, read-out: MIC S. aureus USA600, GISA): > 32 µg/mL; MIC (S. pneumoniae; read-out: MIC S. pneumoniae erm B + mef A genotype, erm B + mef A genotype): 32 µg/mL; MIC (S. pneumoniae; read-out: MIC S. pneumoniae erm B + tet(M, O) genotype, erm B + tet(M, O) genotype): 0.25 µg/mL; MIC (S. pneumoniae; [29]): 8 µg/mL (≈ 9.19 µM); MIC (S. pneumoniae; [30]): 4 µg/mL (≈ 4.6 µM); MIC (S. pyogenes; ATCC19615, read-out: MIC S. pyogenes ATCC19615): 0.5 µg/mL (≈ 0.575 µM); MIC (S. pyogenes; read-out: MIC S. pyogenes macrolide-resistant): 8 µg/mL (≈ 9.19 µM); MIC (E. faecalis; ATCC29212, read-out: MIC E. faecalis ATCC29212): 4 µg/mL (≈ 4.6 µM); MIC (E. faecalis; read-out: MIC E. faecalis Vancomycin-resistant): > 32 µg/mL; MIC (A. baumannii; ATCC19606, read-out: MIC A. baumannii ATCC19606): > 32 µg/mL; MIC (A. baumannii; read-out: MIC A. baumannii imipenem-resistant): > 32 µg/mL; MIC (K. pneumoniae; ATCC10031, read-out: MIC K. pneumoniae ATCC10031): 16 µg/mL (≈ 18.4 µM); MIC (K. pneumoniae; read-out: MIC K. pneumoniae KPC-2): > 32 µg/mL; MIC (P. aeruginosa; Pseudomonas aeruginosa, ATCC27853, read-out: MIC P. aeruginosa ATCC27853): > 32 µg/mL; MIC (H. influenzae; ATCC49247, read-out: MIC H. influenzae ATCC49247): 32 µg/mL (≈ 36.8 µM); MIC (H. influenzae; read-out: MIC H. influenzae erythro > 4, azithro 1): 32 µg/mL (≈ 36.8 µM)
CC[C@H]1OC(=O)[C@H](C)C(=O)[C@H](C)[C@@H](O[C@@H]2OC(CNC(=N)N)CC(N(C)C)C2O)[C@](C)(OC)C[C@@H](C)CN[C@H](C)[C@H]2N(CCCCn3cc(-c4cccc(N)c4)nn3)C(=O)O[C@]12C (some centres unmarked) [FSM-21843]	> 32	> 32	> 32	> 32	> 32	0.5 (≈ 0.565 µM)	32	0.25	2 (≈ 2.26 µM)	8 (≈ 9.04 µM)	> 32	> 32	> 32	> 32	> 32	> 32	32 (≈ 36.2 µM)	> 32	> 32	32 (≈ 36.2 µM)	MIC (S. pneumoniae; [29]): 8 µg/mL (≈ 9.04 µM); MIC (S. pneumoniae; [30]): 4 µg/mL (≈ 4.52 µM); MIC (H. influenzae; [28]): 32 µg/mL (≈ 36.2 µM)
